# Experimental data reported in patent US20090186762A1, “METHOD FOR IMPROVING THE TOLERANCE OF PLANTS TO CHILLING TEMPERATURES AND/OR FROST” (BASF SE, priority 2006, published 2009).
# Columns and labels:
# Assay type in all cases: in vivo
# [1] = test system: Corn seeds (Zea mays; variety Pioneer herbicide resistant 33P71); assay: Cold stress on corn seedlings after seed treatment; conditions: second exposure to cold stress (−5° C., 2 hours, code 13)
# Experimental: Corn seeds (Zea mays; variety Pioneer herbicide resistant 33P71) were treated using either:
# T1: Water (untreated) T2: Pyraclostrobin (5 g active ingredient 100 kg seeds) T3. Azoxystrobin (1 g active ingredient/100 kg seeds)
# Subsequently, the treated seeds were planted in plastic pots (6 cm×6 cm×7 cm) filled with sand (metro mix). Seeds were incubated in a growth chamber (Conviron) at 25° C. and 60% humidity under a dark/light cycle of 16/8 h for 5 days (seedlings were at code 10). At this point, seedlings were exposed to a temperature of −5° C. for 3 hours. Following cold stress, the viable seedlings were kept growing until they had reached code 13. At this stage, they were submitted to additional 2 hours of cold stress at −5° C. Finally, the number of damaged seedlings (%) for each seed treatment was recorded.
# [2] = test system: Arabidopsis thaliana plants; assay: Cold/freezing stress on Arabidopsis thaliana plants, visual assessment of % leaf damage; conditions: for reduction of cold stress symptoms: Arabidopsis plants under different stress conditions
# Experimental: Arabidopsis thaliana plants were grown in pots (8 cm diameter) under controlled environmental conditions at 21° C. during the day and at 19° C. during the night, under a light regiment of 9 h light and 15 h dark per day.
# Chemical treatment was done 18 days after sowing. Each pot was treated with 500 μl of spray solution according to the treatment schedule below with a commercial pump spray applicator.
# 2) Orysastrobin (250 ppm) 3) Orysastrobin (500 ppm) 4) Pyraclostrobin (500 ppm)
# After chemical treatment, the pots have been transferred to the same growth conditions for three days. Then the pots were transferred to three different environmental conditions to exert cold stress:
# Control plants (A) were kept under the same conditions as described above.
# Stressed plants (B) were transferred for 2 days to 6° C. under a 9-15 h day-night cycle. This cold treatment allows Arabidopsis plants to acclimate to a certain extent to the following freezing stress (−4° C., 24 h in the dark) (Wanner et al., 1999, Cold-induced freezing tolerance in Arabidopsis, Plant Physiology 120, 391-399).
# Stressed plants (C) were not cold-hardened and kept for another 2 days under control environment before being transferred for one day to −4° C. without light.
# After these treatments, all pots were returned to standard growth conditions (controlled environmental conditions) as described above.
# 3 days and 9 days after chemical treatment (3 days after recovery from freezing treatment) the trial was evaluated by visual assessment, scoring the symptoms in % leaf damage.
# [3] = test system: Adult Citrus trees (Citrus sinensis); assay: Field freeze protection of adult Citrus trees by leaf application; conditions: three 1600 g/ha leaf applications at 14 to 18 day intervals
# Experimental: Adult Citrus trees (Citrus sinensis) were treated by three 1600 g/ha pyraclostrobin leaf applications at 14 to 18 day intervals. Applications began shortly before the initial freeze in winter seasons. Temperatures dropped to −6° C. in three separate cold weather events. With extreme low temperatures, nothing is expected to reduce damage.
# [4] = stress condition A (control plants, 21° C./19° C., no cold stress), 500 ppm spray, 9 days after chemical treatment
# [5] = stress condition B (2 days 6° C. hardening, then −4° C. 24 h dark), 500 ppm spray, 3 days after recovery from freezing
# [6] = stress condition C (not cold-hardened, −4° C. 24 h dark), 500 ppm spray, 3 days after recovery from freezing
Molecule,number of damaged seedlings (%) ([1]; seed treatment 1 g active ingredient/100 kg seeds),reduction of cold stress symptoms [2],"leaf damage ([2]; stress condition A (control plants, 21° C./19° C., no cold stress), 250 ppm spray, 9 days after chemical treatment)","leaf damage [2, 4]","leaf damage ([2]; stress condition B (2 days 6° C. hardening, then −4° C. 24 h dark), 250 ppm spray, 3 days after recovery from freezing)","leaf damage [2, 5]","leaf damage ([2]; stress condition C (not cold-hardened, −4° C. 24 h dark), 250 ppm spray, 3 days after recovery from freezing)","leaf damage [2, 6]",number of damaged seedlings (%) ([1]; seed treatment 5 g active ingredient 100 kg seeds),chilling protection in citrus ([3]; temperatures dropped to −6° C.),leaf burn symptoms and fruit drop versus untreated control plants ([3]; temperatures dropped to −6° C. in three cold weather events)
"CO/C=C(/C(=O)OC)c1ccccc1Oc1cc(Oc2ccccc2C#N)ncn1 [Azoxystrobin, azoxystrobin]",38%,–,–,–,–,–,–,–,–,–,–
"CNC(=O)/C(=N/OC)c1ccccc1CO/N=C(C)/C(=N/OC)C(/C)=N/OC [Orysastrobin, orysastrobin]",–,highly effective to reduce cold stress symptoms,0%,0%,0%,0%,5%,10%,–,–,–
pyraclostrobin,–,highly effective to reduce cold stress symptoms,–,0%,–,0%,–,30%,0%,strong chilling protection,less leaf burn symptoms and fruit drop
